Results taken from US11286268B1, “EIF4E-inhibiting compounds and methods” (EFFECTOR THERAPEUTICS, INC., priority 2019, dated 2022).
Read-outs that look alike come from different tables or passages of the source.

Target: recombinant eIF4E (Homo sapiens (Human), UniProt P06730)
Experiment: Fluorescence polarization competition assay for eIF4E binding potency
Outline: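 FP readout; IC50 fit from 8-point, 3-fold series. 75 nM eIF4E + 20 nM ATTO-550-labelled m7GDP probe, Tris pH 7.5/NaCl/DTT/Tween buffer, 1% DMSO final. 30 min RT equilibration, light-protected.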

[1] = fluorescence polarization competition, 75 nM recombinant eIF4E, 20 nM EDA-m7GDP-ATTO-550, IC50 class, read-out: elF4E FP
[2] = inhibition of eIF4E/EDA-m7GDP-ATTO-550 binding by 50%, Table 4B calculated values, read-out: IC50

Sequence of recombinant eIF4E (P06730 whole entry): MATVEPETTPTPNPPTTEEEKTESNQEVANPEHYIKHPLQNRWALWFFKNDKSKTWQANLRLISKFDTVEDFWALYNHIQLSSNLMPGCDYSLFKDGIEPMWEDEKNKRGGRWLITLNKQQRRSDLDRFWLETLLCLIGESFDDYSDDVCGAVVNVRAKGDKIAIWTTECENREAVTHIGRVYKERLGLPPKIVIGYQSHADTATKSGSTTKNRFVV

SMILES	IC50 [1]	IC50 [2]
Cc1cnc(-c2nc3c(=O)n(CCOc4ccc(Cl)cc4-c4cc(C)nc5c(C(=O)O)csc45)c(C)nc3cc2C(F)(F)F)c(C)n1 [compound 1023]	< 50 nM	49.8 nM
Cc1cnc(-c2nc3c(=O)n(CCOc4ccc(Cl)cc4-c4cc(C)nc5c(C(=O)O)csc45)c(C)nc3cc2C(F)(F)F)c(Cl)n1 [compound 1024]	< 50 nM	24.2 nM
Cc1cc(-c2cc(Cl)ccc2OCCn2c(C)nc3cc(C(F)(F)F)c(-c4cnc(C(F)F)cn4)c(C#N)c3c2=O)c2scc(C(=O)O)c2n1 [compound 1025]	< 50 nM	30 nM
Cc1cc(-c2cc(Cl)ccc2OCCn2c(C)nc3cc(C(F)(F)F)c(-c4cncc(C(F)(F)F)n4)c(C#N)c3c2=O)c2scc(C(=O)O)c2n1 [compound 1026]	< 50 nM	15.5 nM
Cc1cc(-c2cc(Cl)ccc2OCCn2c(C)nc3cc(C(F)(F)F)c(-c4nn(C)cc4C)c(C#N)c3c2=O)c2scc(C(=O)O)c2n1 [compound 1027]	< 50 nM	31.5 nM
Cc1cc(-c2cc(Cl)ccc2OCCn2c(C)nc3cc(C(F)(F)F)c(-c4cc(C)nn4C)c(C#N)c3c2=O)c2scc(C(=O)O)c2n1 [compound 1028]	< 50 nM	6.14 nM
Cc1cc(-c2cc(Cl)ccc2OCCn2c(C)nc3cc(C(F)(F)F)c(-c4cc(C)n(C)n4)c(C#N)c3c2=O)c2scc(C(=O)O)c2n1 [compound 1029]	< 50 nM	7.66 nM
Cc1cc(-c2cc(Cl)ccc2OCCn2c(C)nc3cc(C(F)(F)F)c(-c4cn(C)nc4C)c(C#N)c3c2=O)c2scc(C(=O)O)c2n1 [compound 1031]	< 50 nM	11.6 nM
Cc1cc(-c2cc(Cl)ccc2OCCn2c(C)nc3cc(C(F)(F)F)c(-c4cnn(C)c4C)c(C#N)c3c2=O)c2scc(C(=O)O)c2n1 [compound 1032]	< 50 nM	6.2 nM
Cc1cc(-c2cc(Cl)ccc2OCCn2c(C)nc3cc(C(F)(F)F)c(OCc4ccccn4)c(C#N)c3c2=O)c2scc(C(=O)O)c2n1 [compound 1033]	< 50 nM	20 nM
Cc1cc(-c2cc(Cl)ccc2OCCn2c(C)nc3cc(C(F)(F)F)c(OC4CC4)c(C#N)c3c2=O)c2scc(C(=O)O)c2n1 [compound 1034]	< 50 nM	37.9 nM
Cc1cc(-c2cc(Cl)ccc2OCCn2c(C)nc3cc(C(F)(F)F)c(Oc4cccnc4)c(C#N)c3c2=O)c2scc(C(=O)O)c2n1 [compound 1035]	< 50 nM	–
COc1c(C(F)(F)F)cc2nc(C)n(CCOc3ccc(Cl)cc3-c3cc(C)nc4c(C(=O)O)csc34)c(=O)c2c1C#N [compound 1036]	< 50 nM	3.51 nM
Cc1cc(-c2cc(Cl)ccc2OCCn2c(C)nc3cnc(Oc4ccccc4)c(C#N)c3c2=O)c2scc(C(=O)O)c2n1 [compound 1038]	< 50 nM	38.9 nM
Cc1cc(-c2cc(Cl)ccc2OCCn2c(C)nc3cnc(OCc4ccccn4)c(C#N)c3c2=O)c2scc(C(=O)O)c2n1 [compound 1039]	< 50 nM	21.7 nM
Cc1cc(-c2cc(Cl)ccc2OCCn2c(C)nc3cc(N(C)C)c(-c4ccccc4)c(C#N)c3c2=O)c2scc(C(=O)O)c2n1 [compound 1040]	< 50 nM	30 nM

SMILES	IC50 [1]	IC50 [2]
Cc1cc(-c2cc(Cl)ccc2OCCn2c(C)nc3cnc(N4CC(OC(F)F)C4)c(C#N)c3c2=O)c2scc(C(=O)O)c2n1 [compound 1041]	< 50 nM	6.21 nM
Cc1cc(-c2cc(Cl)ccc2OCCn2c(C)nc3cnc(N4CC(OC(F)(F)F)C4)c(C#N)c3c2=O)c2scc(C(=O)O)c2n1 [compound 1042]	< 50 nM	26.5 nM
Cc1cc(-c2cc(Cl)ccc2OCCn2c(C)nc3cnc(N4CC(OCC(F)F)C4)c(C#N)c3c2=O)c2scc(C(=O)O)c2n1 [compound 1043]	< 50 nM	3.98 nM
Cc1cc(-c2cc(Cl)ccc2OCCn2c(C)nc3cnc(N4CC(OCC(F)(F)F)C4)c(C#N)c3c2=O)c2scc(C(=O)O)c2n1 [compound 1044]	< 50 nM	5.31 nM
Cc1cc(-c2cc(Cl)ccc2OCCn2c(C)nc3cnc(N4CC(OC(C)(C)C)C4)c(C#N)c3c2=O)c2scc(C(=O)O)c2n1 [compound 1045]	< 50 nM	38.2 nM
Cc1cc(-c2cc(Cl)ccc2OCCn2c(C)nc3cc(Cl)c(C4CCC4)c(C#N)c3c2=O)c2scc(C(=O)O)c2n1 [compound 1047]	< 50 nM	21.2 nM
Cc1cc(-c2cc(Cl)ccc2OCCn2c(C)nc3cc(C(F)F)c(C4CC4)c(C#N)c3c2=O)c2scc(C(=O)O)c2n1 [compound 1048]	< 50 nM	13.7 nM
Cc1cc(-c2cc(Cl)ccc2OCCn2c(C)nc3cc(C(F)(F)F)c(C4CC4)c(C#N)c3c2=O)c2scc(C(=O)O)c2n1 [compound 1049]	< 50 nM	9.35 nM
Cc1cc(-c2cc(Cl)ccc2OCCn2c(C)nc3cc(Cl)c(C4CC4)c(C#N)c3c2=O)c2scc(C(=O)O)c2n1 [compound 1050]	< 50 nM	19.5 nM
Cc1cc(-c2cc(Cl)ccc2OCCn2c(C)nc3cnc(-c4cc(F)cnc4C)c(C#N)c3c2=O)c2scc(C(=O)O)c2n1 [compound 1051]	< 50 nM	5.02 nM
Cc1cc(-c2cc(Cl)ccc2OCCn2c(C)nc3cnc(-c4cc(F)ccc4C)c(C#N)c3c2=O)c2scc(C(=O)O)c2n1 [compound 1052]	< 50 nM	5.46 nM
CC(=O)N(C)c1ncc2nc(C)n(CCOc3ccc(Cl)cc3-c3cc(C)nc4c(C(=O)O)csc34)c(=O)c2c1C#N [compound 1053]	< 50 nM	5.08 nM
Cc1cc(-c2cc(Cl)ccc2OCCn2c(C)nc3cc(Cl)c(N4CCC(O)C4)c(C#N)c3c2=O)c2scc(C(=O)O)c2n1 (stereo not shown) [compound 1054]	< 50 nM	18.6 nM
Cc1cc(-c2cc(Cl)ccc2OCCn2c(C)nc3cc(C(F)(F)F)c(N4CC(C)(O)C4)c(C#N)c3c2=O)c2scc(C(=O)O)c2n1 [compound 1055]	< 50 nM	11.7 nM
Cc1cc(-c2cc(Cl)ccc2OCCn2c(C)nc3cnc(N4CCC(O)C4)c(C#N)c3c2=O)c2scc(C(=O)O)c2n1 (stereo not shown) [compound 1056]	< 50 nM	16.1 nM
Cc1cc(-c2cc(Cl)ccc2OCCn2c(C)nc3cnc(N4CC(C)(O)C4)c(C#N)c3c2=O)c2scc(C(=O)O)c2n1 [compound 1057]	< 50 nM	12.5 nM

Further lines, results first:

IC50 [1]	IC50 [2]	SMILES
< 50 nM	11.1 nM	Cc1cc(-c2cc(Cl)ccc2OCCn2c(C)nc3cc(C(F)(F)F)c(-c4ccc(Cl)nc4)c(C#N)c3c2=O)c2scc(C(=O)O)c2n1 [compound 1059]
< 50 nM	8.54 nM	COc1ccc(-c2c(Cl)cc3nc(C)n(CCOc4ccc(Cl)cc4-c4cc(C)nc5c(C(=O)O)csc45)c(=O)c3c2C#N)cn1 [compound 1061]
< 50 nM	6.63 nM	CCc1cc(-c2cc(Cl)ccc2OCCn2c(C)nc3cnc(CC)c(C#N)c3c2=O)c2scc(C(=O)O)c2n1 [compound 1062]
< 50 nM	–	CCCc1ncc2nc(C)n(CCOc3ccc(Cl)cc3-c3cc(C)nc4c(C(=O)O)csc34)c(=O)c2c1C#N [compound 1063]
< 50 nM	16.2 nM	Cc1cc(-c2cc(Cl)ccc2OCCn2c(C)nc3cnc(CCF)c(C#N)c3c2=O)c2scc(C(=O)O)c2n1 [compound 1064]
< 50 nM	18.6 nM	Cc1cc(-c2cc(Cl)ccc2OCCn2c(C)nc3cnc(C(C)F)c(C#N)c3c2=O)c2scc(C(=O)O)c2n1 (stereo not shown) [compound 1065]
50 to 1000 nM	57.4 nM	COCc1ncc2nc(C)n(CCOc3ccc(Cl)cc3-c3cc(C)nc4c(C(=O)O)csc34)c(=O)c2c1C#N [compound 1066]
< 50 nM	10.5 nM	CCOc1ncc2nc(C)n(CCOc3ccc(Cl)cc3-c3cc(C)nc4c(C(=O)O)csc34)c(=O)c2c1C#N [compound 1067]
50 to 1000 nM	54 nM	CCc1cc(-c2cc(Cl)ccc2OCCn2c(C)nc3cnc(N)c(C#N)c3c2=O)c2scc(C(=O)O)c2n1 [compound 1071]
< 50 nM	37.2 nM	Cc1cc(-c2cc(Cl)ccc2OCCn2c(C)nc3cnc(N)c(C#N)c3c2=O)c2scc(C(=O)O)c2n1 [compound 1072]
50 to 1000 nM	58.1 nM	CCOc1c(C(F)(F)F)cc2nc(C)n(CCOc3ccc(Cl)cc3-c3cc(C)nc4c(C(=O)O)csc34)c(=O)c2c1C#N [compound 1073]
< 50 nM	17.4 nM	Cc1cc(-c2cc(Cl)ccc2OCCn2c(C)nc3cc(C(F)(F)F)c(OCC(F)(F)F)c(C#N)c3c2=O)c2scc(C(=O)O)c2n1 [compound 1074]
< 50 nM	6.64 nM	Cc1cc(-c2cc(Cl)ccc2OCCn2c(C)nc3cc(C(F)(F)F)c(N4CCN(C)CC4=O)c(C#N)c3c2=O)c2scc(C(=O)O)c2n1 [compound 1075]
< 50 nM	24.5 nM	CCCc1cc(-c2cc(Cl)ccc2OCCn2c(C)nc3cnc(C4CC4)c(C#N)c3c2=O)c2scc(C(=O)O)c2n1 [compound 1076]
50 to 1000 nM	245 nM	CCc1cc(-c2cc(Cl)ccc2OCCn2c(N)nc3cc(Cl)cc(C#N)c3c2=O)c2scc(C(=O)O)c2n1 [compound 1077]
50 to 1000 nM	347 nM	CCc1cc(-c2cc(Cl)ccc2OCCn2c(=O)[nH]c3cc(Cl)cc(C#N)c3c2=O)c2scc(C(=O)O)c2n1 [compound 1078]
–	55.9 nM	Cc1cc(-c2cc(Cl)ccc2OCCn2c(C)nc3cc(C(F)(F)F)c(N4CCN(C)CC4)c(C#N)c3c2=O)c2scc(C(O)(O)C(F)(F)F)c2n1 [compound 1079]
50 to 1000 nM	105 nM	Cc1cc(-c2cc(Cl)ccc2OCCn2c(C)nc3cc(C(F)(F)F)c(N4CCN(C)CC4)c(C#N)c3c2=O)c2scc(C(O)C(F)(F)F)c2n1 (stereo not shown) [compound 1080]
